Reference: patent US20170009266A1, “PROCESS FOR THE ATTACHMENT OF A GALNAC MOIETY COMPRISING A (HETERO)ARYL GROUP TO A GLCNAC MOIETY, AND PRODUCT OBTAINED THEREBY” (SYNAFFIX B.V., priority 2014, published 2017)

How the values were obtained:
Gal-T1(Y289G) = biological target: T1, Gal-T1(Y289G) (Bos taurus, UniProt P08037, I205M/L206V/P187L/V158I/Y289G); assay: Glycosyltransfer to trimmed trastuzumab with Gal-T1(Y289G) expressed in CHO; format: biochemical, bovine; details: trimmed trastuzumab 10 mg/mL; UDP derivative 5 mM; enzyme 0.5 mg/mL; pH 8.0, 30° C. overnight
T1 construct: host or cells: CHO K1
T1 sequence (P08037 74-402 V158I/P187L/I205M/L206V/Y289G): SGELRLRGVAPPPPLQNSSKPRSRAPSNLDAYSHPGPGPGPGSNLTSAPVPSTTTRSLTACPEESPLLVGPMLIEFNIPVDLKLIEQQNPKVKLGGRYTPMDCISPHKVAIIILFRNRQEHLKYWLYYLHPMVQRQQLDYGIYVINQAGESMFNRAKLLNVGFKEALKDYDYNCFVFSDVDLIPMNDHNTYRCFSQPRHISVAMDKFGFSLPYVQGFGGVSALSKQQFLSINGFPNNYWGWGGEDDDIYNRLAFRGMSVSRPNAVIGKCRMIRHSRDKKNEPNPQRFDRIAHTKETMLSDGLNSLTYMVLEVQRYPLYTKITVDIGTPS
Description: A set of Gal-T 1 mutants encoding residues 74-402 of bovine Gal-T 1 were transiently expressed in CHO K1 cells by Evitria (Zurich, Switzerland) which include the Gal-T1 single mutants Y289L (represented by SEQ ID NO: 26), Y289F (represented by SEQ ID NO: 27), Y289M (represented by SEQ ID NO: 28), Y289V (represented by SEQ ID NO: 29), Y289A (represented by SEQ ID NO: 30), and Y289G (represented by SEQ ID NO: 31), and the Gal-T1 double mutants Y289L,C342T (represented by SEQ ID NO: 32), and Y289M,C342T (represented by SEQ ID NO: 33). The mutants were purified using a cation exchange column (Source 15S HR16/10 column, GE Healthcare) as described above. Purified proteins were analyzed by SDS-PAGE.
Trimmed trastuzumab (10 mg/mL, […] obtained by Endo S treatment of trastuzumab, was incubated with the 4-azido-3,5-difluorobenzoyl derivative of UDP-galactosamine (23, 5 mM) and one of the Gal-T1 single mutants Y289L, Y289M, Y289A or Y289G (expressed in CHO as described above) (0.5 mg/mL) in 10 mM MnCl2 and 25 mM Tris-HCl pH 8.0 at 30° C. overnight. Mass spectral analysis of the reduced sample indicated a partial conversion of the core GlcNac(Fuc)-substituted trastuzumab heavy chain (49504 Da) into product 30 (49818 to 49825 Da, 20 to 50% of total heavy chain depending on the Gal-T1 mutant used), resulting from transfer of 23 to core GlcNAc(Fuc)-substituted trastuzumab heavy chain. […]

β(1,4)-Gal-T1(Y289L) = biological target: T2, β(1,4)-Gal-T1(Y289L) (Bos taurus, UniProt P08037, I205M/L206V/P187L/V158I/Y289L); assay: Glycosyltransfer of UDP-galactosamine derivatives to trimmed trastuzumab with Gal-T1(Y289L) expressed in E. coli, mass spectral analysis; format: biochemical, bovine; details: trimmed trastuzumab 10 mg/mL; UDP derivative 7 mM; enzyme 2 mg/mL; pH 8.0, 30° C. overnight; reduced sample
T2 construct: made in house; host or cells: E. coli
T2 sequence (P08037 1-402 V158I/P187L/I205M/L206V/Y289L): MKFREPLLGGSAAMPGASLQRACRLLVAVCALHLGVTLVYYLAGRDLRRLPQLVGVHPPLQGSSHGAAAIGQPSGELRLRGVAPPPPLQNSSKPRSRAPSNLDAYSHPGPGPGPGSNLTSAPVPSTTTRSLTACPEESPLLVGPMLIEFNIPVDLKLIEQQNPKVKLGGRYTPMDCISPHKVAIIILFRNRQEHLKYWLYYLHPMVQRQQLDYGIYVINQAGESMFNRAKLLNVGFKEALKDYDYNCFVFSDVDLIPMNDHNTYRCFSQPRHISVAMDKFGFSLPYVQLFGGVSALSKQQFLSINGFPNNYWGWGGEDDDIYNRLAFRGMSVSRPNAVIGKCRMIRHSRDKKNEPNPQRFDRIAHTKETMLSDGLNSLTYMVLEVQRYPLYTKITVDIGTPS
Method: General Protocol for Glycosyltransfer of Galactose Derivative UDP-GalNAz 21-24 with Gal-T1(Y289L) (Expressed in E. coli).
Enzymatic introduction of UDP-Gal derivatives 21-24 onto deglycosylated trastuzumab was effected with a mutant of bovine β(1,4)-galactosyltransferase [β(1,4)-Gal-T1(Y289L)] (expressed in E. coli). The deglycosylated trastuzumab (10 mg/mL) was incubated with the appropriate UDP-galactose derivative (0.4 mM) and β(1,4)-Gal-T1(Y289L) (1 mg/mL) in 10 mM MnCl2 and 25 mM Tris-HCl pH 8.0 for 16 hours at 30° C.
Next, the functionalized trastuzumab was incubated with protein A agarose (40 μL per mg IgG) for 2 hours at 4° C. The protein A agarose was washed three times with PBS and the IgG was eluted with 100 mM glycine-HCl pH 2.7. The eluted IgG was neutralized with 1 M Tris-HCl pH 8.0 and concentrated and washed with PBS using an Amicon Ultra-0.5, Ultracel-10 Membrane (Millipore) to a concentration of 15-20 mg/mL.
Trimmed trastuzumab (10 mg/mL, 3.3 nmol), obtained by Endo S treatment of trastuzumab, was incubated with UDP-galactosamine variant 21 (2.5 mM) and β(1,4)-Gal-T1(Y289L) (0.68 mg/mL, 45 μL) in 10 mM MnCl2 and 25 mM Tris-HCl pH 8.0 at 30° C. overnight.
Trimmed trastuzumab (10 mg/mL, 1.3 nmol), obtained by Endo S treatment of trastuzumab, was incubated with UDP-galactosamine variant 22 (4 mM) and β(1,4)-Gal-T1(Y289L) (1.4 mg/mL, 10 μL) in 10 mM MnCl2 and 25 mM Tris-HCl pH 8.0 at 30° C. overnight. Mass spectral analysis of the reduced sample indicated the formation of the product (49750.9 Da, approximately 80% of total heavy chain), resulting from galactosamide furan-2-carboxyl acid transfer to core GlcNAc(Fuc) substituted trastuzumab heavy chain as shown in FIG. 9.
Trimmed trastuzumab (10 mg/mL, 6.6 nmol), obtained by Endo S treatment of trastuzumab, was incubated with the 4-azido-3,5-difluorobenzoyl derivative of UDP-galactosamine (23, 7 mM) and β(1,4)-Gal-T1(Y289L) (2 mg/mL) in 10 mM MnCl2 and 25 mM Tris-HCl pH 8.0 at 30° C. overnight. Mass spectral analysis of the reduced sample indicated the formation of a one major product (49813 Da, approximately 90% of total heavy chain), resulting from transfer of 23 to core GlcNAc(Fuc)-substituted trastuzumab heavy chain.
Trimmed trastuzumab (10 mg/mL, 1.3 nmol), obtained by Endo S treatment of trastuzumab, was incubated with UDP-galactosamine variant 24 (4 mM) and (3(1,4)-Gal-T1(Y289L) (1.4 mg/mL, 10 μL) in 10 mM MnCl2 and 25 mM Tris-HCl pH 8.0 at 30° C. overnight.

[N-]=[N+]=Nc1c(F)cc(C(=O)N[C@H]2[C@@H](OP(=O)(O)OP(=O)(O)OC[C@H]3O[C@@H](n4ccc(=O)[nH]c4=O)[C@H](O)[C@@H]3O)O[C@H](CO)[C@H](O)[C@@H]2O)cc1F [Compound 23, 4-azido-3,5-difluorobenzoyl Derivative of UDP-GalNH2]
observed conversion (Gal-T1(Y289G)): approximately 20%
product, % of total heavy chain (β(1,4)-Gal-T1(Y289L)): approximately 90%
